Assay results from patent US9783532B2, “Molecules having certain pesticidal utilities, and intermediates, compositions, and processes related thereto” (Dow AgroSciences LLC, priority 2013, dated 2017).

Experiments:
Type in all cases: in vivo
[1] = system: Yellow Fever Mosquito "YFM" (Aedes aegypti); settings: for YFM % Control (or Mortality) rating: about 1 day-old larvae, 96-well plate, room temperature, 3 days
How it was run: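 About 1 day-old Aedes aegypti larvae in liver-powder water added to wells holding compound diluted from 4000 ppm DMSO stock with 90:10 water:acetone, 6 replicate plates. Plates kept covered at room temperature for 3 days. Wells scored for mortality and reported as rating categories.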

[2] = system: Cabbage Looper (Trichoplusia ni) ("CL"); assay: Bioassay on cabbage looper (CL), 128-well diet tray assay; settings: for mortality at 50 µg/cm2: 168 h, 50 μg/cm^2 on artificial diet, second instar CL larvae, 25° C., five to seven days, average of eight wells, read-out: CL % Control (or Mortality) rating
How it was run: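 Percent mortality, averaged across eight replicate wells, was read after five to seven days at 25 °C under a 14:10 photoperiod. Each well held one to five second-instar T. ni on diet carrying a dried 50 μg/cm^2 dose applied in acetone-water 90:10.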

[3] = system: Green Peach Aphid ("GPA") (Myzus persicae); assay: Bioassay on green peach aphid (GPA), foliar spray on cabbage seedlings; settings: for mortality at 200 ppm: Myzus persicae, foliar, 72 h, 200 ppm spray on infested cabbage seedlings, three days, Abbott corrected % control, read-out: GPA % Control (or Mortality) rating
Experimental: Certain molecules disclosed in this document were tested against GPA using procedures described in the following example. In the reporting of the results, the “GPA Rating Table” was used (See Table Section).
Cabbage seedlings grown in 3-inch pots, with 2-3 small (3-5 cm) true leaves, were used as test substrate. The seedlings were infested with 20-50 GPA (wingless adult and nymph stages) one day prior to chemical application. Four pots with individual seedlings were used for each treatment. Test compounds (2 mg) were dissolved in 2 mL of acetone/methanol (1:1) solvent, forming stock solutions of 1000 ppm test compound. The stock solutions were diluted 5× with 0.025% Tween 20 in water to obtain the solution at 200 ppm test compound. A hand-held aspirator-type sprayer was used for spraying a solution to both sides of […] leaves until runoff. Reference plants (solvent check) were sprayed with the diluent only containing 20% by volume of acetone/methanol (1:1) solvent. Treated plants were held in a holding room for three days at approximately 25° C. and ambient relative humidity (RH) prior to grading. Evaluation was conducted by counting the number of live aphids per plant under a microscope. Percent Control was measured by using Abbott's correction formula (W. S. Abbott, “A Method of Computing the Effectiveness of an Insecticide” J. Econ. Entomol. 18 (1925), pp. 265-267) as follows. Corrected % Control=100*(X−Y)/X • where • X=No. of live aphids on solvent check plants and • Y=No. of live aphids on treated plants

[4] = system: Beet Armyworm (Spodoptera exigua) ("BAW"); assay: Bioassay on beet armyworm (BAW), 128-well diet tray assay; settings: for mortality at 50 µg/cm2: 168 h, 50 μg/cm^2 on artificial diet, second instar BAW larvae, 25° C., five to seven days, average of eight wells, read-out: BAW % Control (or Mortality) rating
How it was run: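 Percent mortality, averaged across eight wells, was read after five to seven days at 25° C. under 14:10 light-dark. Each well held one to five second-instar larvae on artificial diet that had been treated with 50 μg/cm^2 compound in 90:10 acetone-water and dried.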

[5] = Table ABC (FB), activity rating class

Structure (SMILES) | YFM % Control (or Mortality) rating [1] | mortality at 50 µg/cm2 [2] [%] | mortality at 200 ppm [3] [%] | mortality at 50 µg/cm2 [4] [%] | YFM (Biological Results, Insect species) [1, 5] | pest or weed control at 50 µg/cm2 ([2]; Table ABC (FB), activity rating class, read-out: CL (Biological Results, Insect species)) [%] | GPA (Biological Results, Insect species) [3, 5] | pest or weed control at 50 µg/cm2 ([4]; Table ABC (FB), activity rating class, read-out: BAW (Biological Results, Insect species)) [%]
CC(C)c1ccccc1N1C(=O)CS/C1=N\C(=O)NC1CC1c1ccc(-c2ncn(-c3ccc(OC(F)(F)F)cc3)n2)cc1 (centres unmarked) [F29, (Z)-1-(3-(2-isopropylphenyl)-4-oxothiazolidin-2-ylidene)-3-(2-(4-(1-(4-(trifluoromethoxy)phenyl)-1H-1,2,4-triazol-3-yl)phenyl)cyclopropyl)urea] | A (80-100) | 50 to 100 | 0 | 50 to 100 | – | – | – | –
Cc1ccc(C(C)C)c(N2C(=O)CS/C2=N\C(=O)NCCCCc2ccc(-c3ncn(-c4ccc(OC(F)(F)F)cc4)n3)cc2)c1 [P150, P363, (Z)-1-(3-(2-isopropyl-5-methylphenyl)-4-oxothiazolidin-2-ylidene)-3-(4-(4-(1-(4-(trifluoromethoxy)phenyl)-1H-1,2,4-triazol-3-yl)phenyl)butyl)urea] | A (80-100) | 50 to 100 | 0 to 80 | 50 to 100 | – | – | – | –
Cc1ccc(C(C)C)c(N2C(=O)CS/C2=N\C(=O)NCCc2ccc(-c3ncn(-c4ccc(OC(F)(F)F)cc4)n3)cc2)c1 [F5, (Z)-1-(3-(2-isopropropyl-5-methylphenyl)-4-oxothiazolidin-2-ylidene)-3-(4-(1-(4-(trifluoromethoxy)phenyl)-1H-1,2,4-triazol-3-yl)phenethyl)urea] | A (80-100) | 50 to 100 | 80 to 100 | 50 to 100 | – | – | – | –
CC(Cc1ccc(-c2ncn(-c3ccc(OC(F)(F)F)cc3)n2)cc1)NC(=O)/N=C1\SCC(=O)N1c1ccccc1C(C)C (centres unmarked) [F7, (Z)-1-(3-(2-isopropylphenyl)-4-oxothiazolidin-2-ylidene)-3-(1-(4-(1-(4-(trifluoromethoxy)phenyl)-1H-1,2,4-triazol-3-yl)phenyl)propan-2-yl)urea] | A (80-100) | 50 to 100 | 0 to 80 | 50 to 100 | – | – | – | –
COc1ccc(C(C)C)c(N2C(=O)CS/C2=N\C(=O)NCCc2ccc(-c3ncn(-c4ccc(OC(F)(F)F)cc4)n3)cc2)c1 [F6, (Z)-1-(3-(2-isopropyl-5-methoxyphenyl)-4-oxothiazolidin-2-ylidene)-3-(4-(1-(4-(trifluoromethoxy)phenyl)-1H-1,2,4-triazol-3-yl)phenethyl)urea] | A (80-100) | 50 to 100 | 0 to 80 | 50 to 100 | – | – | – | –
CC(C)c1ccccc1NC(=S)NC(=O)NCc1ccc(-c2ncn(-c3ccc(OC(F)(F)F)cc3)n2)cc1 [F14, N-[2-(propan-2-yl)phenyl]-N′-(4-{1-[4-(trifluoromethoxy)phenyl]-1H-1,2,4-triazol-3-yl}benzyl)dicarbonimidothioic diamide] | A (80-100) | 50 to 100 | 0 | 50 to 100 | – | – | – | –
Cc1ccc(C(C)C)c(N2C(=O)CS/C2=N\C(=O)NCC(C)c2ccc(-c3ncn(-c4ccc(OC(F)(F)F)cc4)n3)cc2)c1 (centres unmarked) [F10, (Z)-1-(3-(2-isopropyl-5-methylphenyl)-4-oxothiazolidin-2-ylidene)-3-(2-(4-(1-(4-(trifluoromethoxy)phenyl)-1H-1,2,4-triazol-3-yl)phenyl)propyl)urea] | A (80-100) | 50 to 100 | 0 to 80 | 50 to 100 | – | – | – | –
CCC(Cc1ccc(-c2ncn(-c3ccc(OC(F)(F)F)cc3)n2)cc1)NC(=O)/N=C1\SCC(=O)N1c1cc(C)ccc1C(C)C (centres unmarked) [FB43, (Z)-1-(3-(2-isopropyl-5-methylphenyl)-4-oxothiazolidin-2-ylidene)-3-(1-(4-(1-(4-(trifluoromethoxy)phenyl)-1H-1,2,4-triazol-3-yl)phenyl)butan-2-yl)urea] | – | – | – | – | A (80-100) | 50 to 100 | B (More than 0-Less than 80) | 50 to 100
CC(C)c1cc(F)ccc1N1C(=O)CS/C1=N\C(=O)NCCc1ccc(-c2ncn(-c3ccc(OC(F)(F)F)cc3)n2)cc1 [P28, (Z)-1-(3-(4-fluoro-2-isopropylphenyl)-4-oxothiazolidin-2-ylidene)-3-(4-(1-(4-(trifluoromethoxy)phenyl)-1H-1,2,4-triazol-3-yl)phenethyl)urea] | A (80-100) | 50 to 100 | 0 | 50 to 100 | – | – | – | –
CC(C)c1cccc(N2C(=O)CS/C2=N\C(=O)NCCc2ccc(-c3ncn(-c4ccc(OC(F)(F)F)cc4)n3)cc2)c1 [P51, (Z)-1-(3-(3-isopropylphenyl)-4-oxothiazolidin-2-ylidene)-3-(4-(1-(4-(trifluoromethoxy)phenyl)-1H-1,2,4-triazol-3-yl)phenethyl)urea] | A (80-100) | 50 to 100 | 0 to 80 | 50 to 100 | – | – | – | –
Cc1ccc(C(C)C)c(N2C(=O)CS/C2=N\C(=O)NCCCCc2ccc(-c3ncn(-c4ccc(C(F)(F)F)cc4)n3)cc2)c1 [P159, (Z)-1-(3-(2-isopropyl-5-methylphenyl)-4-oxothiazolidin-2-ylidene)-34-(4-(4-(1-(4-(trifluoromethyl)phenyl)-1H-1,2,4-triazol-3-yl)phenyl)butyl)urea] | A (80-100) | 50 to 100 | 0 to 80 | 50 to 100 | – | – | – | –
CC(C)c1ccccc1NC(=S)NC(=O)NCCc1ccc(-c2ncn(-c3ccc(OC(F)(F)F)cc3)n2)cc1 [F2, N-[2-isopropylphenyl]-N-[2-(4-{1-[4-(trifluoromethoxy)phenyl]-1H-1,2,4-triazol-3-yl}phenyl)ethyl]dicarbonimidothioic diamide] | A (80-100) | 50 to 100 | 0 to 80 | 50 to 100 | – | – | – | –
Cc1ccc(C(C)C)c(N2C(=O)CS/C2=N\C(=O)NCCc2ccc(-c3ncn(-c4ccc(C(F)(F)F)cc4)n3)cc2)c1 [P52, (Z)-1-(3-(2-isopropyl-5-methylphenyl)-4-oxothiazolidin-2-ylidene)-3-(4-(1-(4-(trifluoromethyl)phenyl)-1H-1,2,4-triazol-3-yl)phenethyl)urea] | A (80-100) | 50 to 100 | 0 | 50 to 100 | – | – | – | –
CCc1ccccc1N1C(=O)CS/C1=N\C(=O)NCCCCc1ccc(-c2ncn(-c3ccc(OC(F)(F)F)cc3)n2)cc1 [P145, P522, (Z)-1-(3-(2-ethylphenyl)-4-oxothiazolidin-2-ylidene)-3-(4-(4-(1-(4-(trifluoromethoxy)phenyl)-1H-1,2,4-triazol-3-yl)phenyl)butyl)urea] | A (80-100) | 50 to 100 | 0 | 50 to 100 | – | – | – | –
